The record followed here is PMC12508057, “Discovery of ETI41 and ETI60: novel selective endosomal Toll-like receptor inhibitors for the treatment of autoimmune diseases” (Experimental & Molecular Medicine, 2025).

In this test the test system is TLR7- and TLR9-dependent downstream signaling. In words: Western blot of TLR7- and TLR9-dependent downstream signaling in RAW 264.7. The test is classed as cell-based, mouse. To be noted: RAW 264.7, 5 or 10 μM. The procedure:
RAW 264.7 cells were seeded into 60-mm dishes at 1 × 10^6 cells per dish. After 30 min of treatment with ETI41 or ETI60, the cells were stimulated with 2 μM IMQ (a TLR7 agonist) or 1 μM ODN2395 (a TLR9 agonist). Lysates were prepared using a Mammalian Protein Extraction Kit (Thermo Fisher Scientific) with protease and phosphatase inhibitors. Nuclear proteins were extracted using an NE-PER Nuclear and Cytoplasmic Extraction Kit (Thermo Fisher Scientific). Proteins were quantified using a bicinchoninic acid kit (Sigma-Aldrich), separated by SDS–PAGE and transferred onto nitrocellulose membranes (GE Healthcare). Membranes were incubated with specific primary antibodies and horseradish peroxidase-conjugated secondary antibodies. […] Protein bands were detected using a chemiluminescent substrate (SuperSignal West Pico PLUS; Thermo Fisher Scientific) and visualized using a Fuji LAS-3000 system (Fujifilm).
Fig. 2 ETI41 and ETI60 inhibit TLR7- and TLR9-dependent downstream signaling. a, b Western blot analysis was used to quantify the protein levels of phosphorylated p-ERK, p-JNK, p38, Iκ-Bα and p65. […] Statistical differences between the induced and other cases were analyzed and verified using a one-tailed Student’s t-test (*P < 0.05, **P < 0.01, ***P < 0.001). e–g The TLR7 agonist IMQ (1 μM) was used in 3’ RNA-seq analysis to induce signaling associated with immune responses in RAW 264.7 cells. […]
For orientation: A western blot detects proteins with antibodies after separation by electrophoresis.

Consider `Cc1cc2c(N)c3c(nc2n1CCCN(C)C)CCCCCC3` [ETI41], for which the “IMQ- or ODN2395-induced phosphorylation of MAPKs (p-ERK, p-JNK, p-p38), nuclear translocation of NF-κB p65, Iκ-Bα degradation and IRF7 expression” value is given as “inhibited”. To `COc1ccc2c3c(N)c4c(nc3n(CCCN(C)C)c2c1)CCCC4` [ETI60] belongs “inhibited”.
